Test results published in PMC5688144, “Assay interference and off-target liabilities of reported histone acetyltransferase inhibitors” (Nature Communications, 2017).
Entries after “also recorded” stand apart in the source; their conditions may differ.

What was measured:
human La antigen = biological target: T1, human La antigen (Homo sapiens, UniProt P05455, T302N); assay: ALARM NMR; type: binding; conditions: 400 μM compound; for ALARM NMR, (-) DTT: 0 mM DTT; for ALARM NMR, (+) DTT: DTT present; for ALARM NMR interpretation: with and without DTT
T1 construct: amino acids 100–324 of the human La antigen (plus T302N mutation); 6xHis (N); 6xHis (C); host or cells: Escherichia coli Rosetta cells
T1 sequence (P05455 100-324 T302N): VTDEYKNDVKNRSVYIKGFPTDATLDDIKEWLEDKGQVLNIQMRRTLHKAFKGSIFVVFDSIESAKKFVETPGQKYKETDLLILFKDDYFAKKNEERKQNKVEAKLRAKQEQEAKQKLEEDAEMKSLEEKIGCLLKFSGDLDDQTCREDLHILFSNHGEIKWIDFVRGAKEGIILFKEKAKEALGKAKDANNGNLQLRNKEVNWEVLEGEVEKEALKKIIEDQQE
Excerpt: The gene encoding amino acids 100–324 of the human La antigen (plus T302N mutation) was cloned into pET28b + vector (Novagen) with both an N- and C-terminal 6xHis tag (addgene.org, plasmid ID 90209). The sequence identity of the ALARM NMR plasmid construct was verified by Sanger sequencing of the transgene region and next-generation sequencing of the whole plasmid.
Plasmid was transformed into Escherichia coli Rosetta cells (Novagen) and cultured in M9 minimal media. The La antigen was labeled by adding ^13C-labeled amino acid precursors ([3-^13C]-α-ketobutyrate and [3,3′-^13C]-α-ketoisovalerate sodium salts; Cambridge Isotope Laboratories; 250 mg L^−1 final concentrations) to culture medium 30 min before induction with IPTG (1 mM final concentration). Bacteria were collected after incubation at 25 °C for 8 h and washed with ice-cold phosphate-buffered saline (PBS). Washed cells were lysed by French press in ice-cold lysis buffer (50 mM Tris, pH 7.6, 300 mM NaCl, 10% glycerol (v/v), 5 mM β-mercaptoethanol (BME), 5 mM imidazole, 2 mM MgCl2, benzonase, and protease inhibitor cocktail), followed by an additional brief sonication step (3 × 15 s pulse sequence) on ice. This lysed solution was centrifuged (30,000×g for 30 min, two cycles) to remove cellular debris, then loaded onto a pre-washed Ni-NTA bead column (Qiagen) kept at 4 °C and washed with buffer (50 mM Tris, pH 7.6, 300 mM NaCl, 10% glycerol (v/v), 5 mM BME, 5 mM imidazole). The La antigen was eluted with an elution buffer (50 mM Tris, pH 7.6, 300 mM NaCl, 10% glycerol (v/v), 5 mM BME, imidazole gradient ranging from 5 mM to 0.5 M). […] Aliquots were flash-frozen in liquid N2 and stored at −80 °C until further use. Before use, aliquots of ~150 μM protein were incubated in the presence of 20 mM DTT at 37 °C for 1 h, then dialyzed (25 mM sodium phosphate buffer, pH 7.0 (no DTT)) in 16 h cycles at 4 °C with constant nitrogen bubbling and with gentle stirring, for three total buffer cycles.
For standard testing conditions, the [^1H-^13C]-HMQC spectra were acquired in 25 mM sodium phosphate buffer, pH 7.0, 10% D2O (v/v; CIL) ± 400 μM test compounds delivered from the aforementioned stock solutions, and ± 20 mM non-deuterated DTT. Final concentration of DMSO was 4.0% (v/v). Reaction solutions were mixed, then centrifuged for 5 min (1000×g) in non-binding 384-well microplates at RT, then incubated at 37 °C for 1 h and then 30 °C for 15 h before obtaining spectra. Samples were checked for evidence of gross precipitation. Data were recorded at 298 K on a Bruker UltraShield 700 MHz NMR spectrometer equipped with a Bruker 1.7 mm TCI Cryoprobe and Bruker SampleJet autosampler. Samples were tested at 50 μM protein concentrations using 16 scans, 2048 complex points in F2, and 80 points in F1 using standard protein [^1H-^13C]-HMQC and water suppression pulse sequences.
Data were analyzed in TopSpin™ 3.5 (Bruker). Reactions were normalized to equivalent DMSO controls. Non-reactive compounds were identified by the absence of chemical shifts or changes in peak intensities (^13C-methyl) ± 20 mM DTT.

AmpC β-lactamase = biological target: T2, AmpC β-lactamase (Escherichia coli, UniProt P00811); assay: biochemical; set-up: species or system E. coli; conditions: for AmpC counter-screen result / AmpC aggregation counter-screen: 10 μM compound; for AmpC counter-screen result: detergent-sensitive modulation; for AmpC aggregation counter-screen: ± 0.01% Triton X-100
T2 construct: Recombinant E. coli AmpC (amino acids 20–377); purchased MyBioSource.com
Method: Selected compounds were assessed for aggregation using a modified AmpC β-lactamase counter-screen[24],[32],[64]. Recombinant E. coli AmpC (amino acids 20–377) was obtained from MyBioSource.com. Testing was performed in ALARM NMR buffer (25 mM sodium phosphate, pH 7.0) in flat-bottom UV-transparent 96-well microplates in 150 μL reaction volumes. Compounds were tested in triplicate at 10 μM final concentrations in either the presence or absence of freshly-prepared 0.01% Triton X-100 (v/v). Final concentration of DMSO was 2.0% (v/v). Compounds were incubated with ~5 nM AmpC in 147 μL reaction buffer for 5 min at RT, followed by the addition of 3 μL of nitrocefin substrate (100 μM final concentration). Reaction solutions were gently mixed by pipetting up and down three times using a multichannel pipette. […] Percent activity was normalized to DMSO-only controls. Fluconazole and lidocaine were included as negative aggregation control compounds. Rottlerin was included as a positive aggregation control compound. Aggregators were defined as compounds with significant detergent-dependent changes in AmpC activity (t-test, adjusted P-value <0.05; mean differences greater than 30%). Activators were defined as compounds that increased AmpC enzymatic activity.

[1] = Autofluorescence counter-screen; type: physicochemical; conditions: for Fluorescence counter-screen: autofluorescence at eight fluorophore settings, 32 nM-100 μM compound
Method: Selected test compounds were assessed for autofluorescence using an adaption of published procedures. […] Final concentration of DMSO was constant at 1.0% (v/v). Compounds and fluorophore standards were transferred as 10 mM DMSO stock solutions to 384-well black polystyrene microplates via Echo 550 dispenser. The plate arrangement was purposefully designed to minimize optical crosstalk by fluorophore standards. All measurements were performed in ALARM NMR buffer (25 mM sodium phosphate, pH 7.0) at 25 °C. Aliquots of 20 μL buffer were dispensed into microplate wells via ThermoFisher Multidrop dispenser. Compounds were shaken for 1 min on a plate shaker, centrifuged briefly for 1 min at 1000×g, then allowed to incubate at RT in buffer for 10 min before measuring fluorescence intensity on a SpectraMax M3 plate reader under reduced lighting. […] Bandwidth filters were set to default mode. Fluorescence intensity was measured for each test compound using each of the eight fluorophore standard settings. Fluorophores present on each plate were then used to construct normalized fluorescence dose-responses (“fluorophore-equivalent concentrations”, FEC). Fluorescence intensity for each test compound was converted to the appropriate FEC.

| Compound | ALARM NMR, (-) DTT (human La antigen) | ALARM NMR, (+) DTT (human La antigen) | ALARM NMR interpretation (human La antigen) | AmpC counter-screen result (AmpC β-lactamase) | AmpC aggregation counter-screen (AmpC β-lactamase) | inhibition at 10 µM (AmpC β-lactamase; read-out: % Inhibition, AmpC) [%] | Fluorescence counter-screen [1] | Fluorophore interference ([1]; fluorophore settings with autofluorescence) | ALARM NMR readout (human La antigen; overall readout) |
| --- | --- | --- | --- | --- | --- | --- | --- | --- | --- |
| CC1=NN(c2ccc(C(=O)O)cc2)C(=O)/C1=C/c1ccc(-c2cc(C)c(C)cc2[N+](=O)[O-])o1 [Compound 1, C646] | positive | Negative | Thiol-reactive | likely aggregators | Detergent-sensitive (activator) | -58 ± 56 | Negative | – | – |
| O=c1c2cccnc2sn1Cc1ccc(C(F)(F)F)cc1 [Compound 3, PU141] | Positive | Negative | Thiol-reactive | – | Detergent-insensitive | – | Flagged (Significant autofluorescence was defined as compounds with FECs greater than 100 nM at any compound concentration) | 4MU, AlexaFluor 350 | – |
| Cc1cc(O)cc(C)c1C=C1C(=O)N(Cc2ccccc2)C(=O)N(Cc2ccccc2)C1=O [Compound 4, EML425] | Positive | Negative | Thiol-reactive | likely aggregators | Detergent-sensitive (Aggregators were defined as compounds with significant detergent-dependent changes in AmpC activity (t-test, adjusted P-value <0.05; mean differences greater than 30%)) | – | Negative | – | positive |
| COc1ccc(S(=O)(=O)ON=C2C=C(C)C(=O)C(C)=C2)cc1 [Compound 5, L002] | Positive | Negative | Thiol-reactive | – | Detergent-insensitive | – | Negative | – | – |
| C=C1C(=O)O[C@H](CCC)[C@H]1C(=O)O [Compound 6, MB-3] | Positive | Negative | Thiol-reactive | – | Detergent-insensitive | – | Negative | – | – |
| Clc1ccc(-c2csc(NN=C3CCCC3)n2)cc1 [Compound 7, CPTH2] | Positive | Negative | Thiol-reactive | likely aggregators | Detergent-sensitive (Aggregators were defined as compounds with significant detergent-dependent changes in AmpC activity (t-test, adjusted P-value <0.05; mean differences greater than 30%)) | – | Negative | – | – |
| CCCCCCCCCCCC1=C(O)C(=O)C=C(O)C1=O [Compound 9, Embelin] | Positive | Positive | Thiol-reactive, nonspecific perturbation | – | Detergent-sensitive (Aggregators were defined as compounds with significant detergent-dependent changes in AmpC activity (t-test, adjusted P-value <0.05; mean differences greater than 30%)) | – | Negative | – | – |
| O=C(O[C@@H]1Cc2c(O)cc(O)cc2O[C@@H]1c1cc(O)c(O)c(O)c1)c1cc(O)c(O)c(O)c1 [Compound 10, (-)-Epigallocatechin gallate] | Positive | Negative | Thiol-reactive | – | Detergent-insensitive | – | Negative | – | – |
| COc1cc(/C=C/C(=O)CC(=O)/C=C/c2ccc(O)c(OC)c2)ccc1O [Compound 11, Curcumin] | Partial | Negative | Equivocal | – | Detergent-sensitive (Aggregators were defined as compounds with significant detergent-dependent changes in AmpC activity (t-test, adjusted P-value <0.05; mean differences greater than 30%)) | – | Negative | – | – |
| O=C1/C(=C/c2ccc(O)c(Br)c2)CCC/C1=C\c1ccc(O)c(Br)c1 [Compound 12, HAT inhibitor II] | Partial | Negative | Equivocal | – | Detergent-sensitive (Aggregators were defined as compounds with significant detergent-dependent changes in AmpC activity (t-test, adjusted P-value <0.05; mean differences greater than 30%)) | – | Negative | – | – |
| CCCCCCCCCCCCCCCc1cccc(O)c1C(=O)O [Compound 14, Anacardic acid] | Positive | Positive | Nonspecific perturbation | – | Detergent-sensitive (Aggregators were defined as compounds with significant detergent-dependent changes in AmpC activity (t-test, adjusted P-value <0.05; mean differences greater than 30%)) | – | Negative | – | – |
| CCCCCCCc1ccc(CCc2cccc(O)c2C(=O)O)cc1 [Compound 15, MG 149] | Positive | Positive | nonspecific protein perturbation; also recorded: potential aggregator | negative | Detergent-insensitive | – | Negative | – | – |
| Cc1cc2c(C(C)C)c(O)c(O)c(C=O)c2c(O)c1-c1c(C)cc2c(C(C)C)c(O)c(O)c(C=O)c2c1O [Compound 16, Gossypol] | Positive | Positive | nonspecific protein perturbation | – | Detergent-sensitive (Aggregators were defined as compounds with significant detergent-dependent changes in AmpC activity (t-test, adjusted P-value <0.05; mean differences greater than 30%)) | – | Negative | – | – |
